Data published in US7183445B2, “Cyclohexyl derivatives as selective estrogen receptor modulators” (Janssen Pharmaceutica N.V, priority 2004, dated 2007).
“And” between values parts separate entries of the source, which are not always exact repeats. Equal values may be shown once. Read-outs that look alike come from different tables or passages of the source.

Columns and labels:
MCF-7 cells = assay: MCF-7 Cell Proliferation Assay; assay type: cell-based
Protocol: MCF-7 Cell Proliferation Assay
This assay was run according to the procedure described by Welshons, et al., (Breast Cancer Res. Treat., 1987, 10(2), 169–75), with minor modification.
Briefly, MCF-7 cells (from Dr. C. Jordan, Northwestern University) were maintained in RPMI 1640 phenol red free medium (Gibco) in 10% FBS (Hyclone), supplemented with bovine insulin and non-essential amino acid (Sigma). The cells were initially treated with 4-hydroxytamoxifen (10^−8 M) and let stand at 37° C. for 24 hours. Following this incubation with tamoxifen, the cells were treated with compounds at various concentrations.
Compounds to be tested in the agonist mode were added to the culture media at varying concentrations. Compounds to be treated in the antagonist mode were prepared similarly, and 10 nM 17β-estradiol was also added to the culture media. The cells were incubated for 24 hours at 37° C. Following this incubation, 0.1 μCi of ^14C-thymidine (56mCi/mmol, Amersham) was added to the culture media and the cells were incubated for an additional 24 hours at 37° C. The cells were then washed twice with Hank's buffered salt solution (HBSS) (Gibco) and counted with a scintillation counter. The increase in the ^14C-thymidine in the compound treated cells relative to the vehicle control cells were reported as percent increase in cell proliferation.
(§1) Representative compound of the present invention were tested according to the procedure described in Examples 14 and 15 above, with results as listed in Table. 7.

[1] = biological target: T1, human estrogen receptor α (Homo sapiens, UniProt P03372); assay: Estrogen Receptor α Flash Plate Assay; conditions: displacement of radio-labeled estrogen, FlashPlate; read-out: ERα Binding IC50
T1 construct: purchased Panvera
T1 sequence (P03372 1-595): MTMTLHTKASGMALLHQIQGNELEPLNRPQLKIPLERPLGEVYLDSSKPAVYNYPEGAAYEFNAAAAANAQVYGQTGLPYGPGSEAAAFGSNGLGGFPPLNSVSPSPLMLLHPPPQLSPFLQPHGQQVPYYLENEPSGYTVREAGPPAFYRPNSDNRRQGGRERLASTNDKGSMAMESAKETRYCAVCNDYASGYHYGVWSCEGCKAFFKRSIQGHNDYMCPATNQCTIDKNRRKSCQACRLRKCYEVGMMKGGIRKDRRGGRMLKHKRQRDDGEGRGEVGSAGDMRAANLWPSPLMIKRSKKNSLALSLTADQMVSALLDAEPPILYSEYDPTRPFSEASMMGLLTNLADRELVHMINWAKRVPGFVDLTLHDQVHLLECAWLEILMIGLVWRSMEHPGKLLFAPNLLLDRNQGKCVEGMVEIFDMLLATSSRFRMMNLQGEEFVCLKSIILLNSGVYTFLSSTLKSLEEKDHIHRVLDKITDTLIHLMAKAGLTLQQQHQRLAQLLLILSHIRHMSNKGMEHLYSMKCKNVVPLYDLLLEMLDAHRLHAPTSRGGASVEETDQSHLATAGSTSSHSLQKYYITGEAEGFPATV
Protocol: Estrogen Receptor α Flash Plate Assay
This assay monitors binding of radio-labeled estrogen to the estrogen receptor. It is performed on a BioMek 2000 (Beckman). Plates are read in a scintillation counter (Packard TopCount), with decreased counts an indication of binding of a compound to the receptor. The assay was run according to the procedure described by Allan, et al., Anal. Biochem. (1999), 275(2), 243–247.
On day one, 100 μL of Estrogen Screening Buffer (ESB, Panvera) containing 5 mM dithiothreitol (DTT, Panvera), 0.5 μg mouse anti-estrogen receptor monoclonal antibody (SRA-1010, Stressgen) and 50 ng purified human estrogen receptor α (Panvera) were added to each well of a 96 well FlashPlate Plus plate crosslinked with goat anti-mouse antibodies (NEN Life Sciences). The plate was sealed and incubated at 4° C. overnight.
On day two, each well was washed three times with 200 μL PBS, pH 7.2, at room temperature. To each well was then added 98 μL radio-labeled estrogen (0.5 nM, which equals 6 nCi for a 120 Ci/mmol batch, Amersham), diluted in ESB and 5 mM dithiothreitol (DTT). To individual wells were then added 2.5 μL test compound diluted in 30% (v/v) dimethyl sulfoxide/50 mM HEPES, pH 7.5. The wells were mixed three times by aspiration, the plate sealed and incubated at room temperature for one hour. The wells were then counted for 1 min in a TopCount scintillation counter (Packard).
(§2) Representative compound of the present invention were tested according to the procedure described above for binding to the Estrogen Receptor α and Estrogen Receptor β, with results as listed in Table 6.

[2] = test system: Human Endometrial Ishikawa Cells; assay: Alkaline Phosphatase Assay in Human Endometrial Ishikawa Cells; assay type: cell-based; conditions: for EC50: read-out: Ishikawa Agonist EC50; for IC50: read-out: Ishikawa Antagonist IC50
Protocol: Alkaline Phosphatase Assay in Human Endometrial Ishikawa Cells
This assay was run according to the procedure described by Albert et a., Cancer Res, […], 50(11), 330-6-10, with minor modification.
Ishikawa cells (from ATCC) were maintained in DMEM/F12 (1:1) phenol red free medium (Gibco) supplemented with 10% calf serum (Hyclone). 24 hours prior to testing, the medium was changed to DMEM/F12 (1:1) phenol red free containing 2% calf serum.
Compounds to be tested in the agonist mode were added to the culture media at varying concentrations. Compounds to be treated in the antagonist mode were prepared similarly, and 10 nM 17β-estradiol was also added to the culture media. The cells were then incubated at 37° C. for 3 days. On the fourth day, the media was remove, 1 volume of 1× Dilution Buffer (Clontech) was added to the well followed by addition of 1 volume of Assay Buffer (Clontech). The cells were then incubated at room temperature for 5 minutes. 1 volume of freshly prepared Chemiluminescence Buffer (1 volume of chemiluminescent substrate (CSPD) in 19 volume Chemiluminescent Enhancer with final concentration of CSPD at 1.25 mM; Sigma Chemical Co.) was added. The cells were incubated at room temperature for 10 minutes and then quantified on a luminometer. The increase of chemiluminescence over vehicle control was used to calculate the increase in alkaline phosphatase activity.
as §1

hER-β = biological target: T2, hER-β (Homo sapiens, UniProt Q92731); assay: Estrogen Receptor β Fluorescence Polarization Assay; conditions: displacement of Fluormone ES2, fluorescence polarization; read-out: ERβ Binding IC50
T2 construct: purchased Panvera
T2 sequence (Q92731 whole entry): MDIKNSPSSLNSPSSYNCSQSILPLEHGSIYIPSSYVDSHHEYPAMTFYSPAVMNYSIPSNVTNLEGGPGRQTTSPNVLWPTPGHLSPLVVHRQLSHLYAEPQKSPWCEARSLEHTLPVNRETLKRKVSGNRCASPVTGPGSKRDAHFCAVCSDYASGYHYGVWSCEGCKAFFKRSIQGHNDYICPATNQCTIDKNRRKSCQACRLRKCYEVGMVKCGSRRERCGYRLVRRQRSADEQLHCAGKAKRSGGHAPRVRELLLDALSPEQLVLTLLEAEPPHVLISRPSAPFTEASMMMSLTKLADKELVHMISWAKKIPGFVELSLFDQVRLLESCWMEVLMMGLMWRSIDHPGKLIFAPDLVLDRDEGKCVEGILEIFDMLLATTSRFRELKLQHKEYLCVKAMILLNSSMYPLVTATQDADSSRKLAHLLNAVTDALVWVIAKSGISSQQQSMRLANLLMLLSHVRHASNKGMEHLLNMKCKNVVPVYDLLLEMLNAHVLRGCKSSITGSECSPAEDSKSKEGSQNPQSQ
Text: Estrogen Receptor β Fluorescence Polarization Assay
This assay monitors binding of a fluorescent analog of estrogen (Fluormone ES2, Panvera) to the estrogen receptor. Plates are read in a fluorometer that can be set to polarization mode. A decrease in […] relative to vehicle control is an indication of binding of a compound to the receptor.
It is crucial to avoid introduction of air bubbles into the reaction in each well of the 96 well plate throughout this procedure. (Bubbles on the surface of the reaction disrupt light flow, affecting the polarization reading.) However, it is also crucial to effectively mix the reaction components upon addition to the well.
On ice, a 2× standard mixture of Assay Buffer (Panvera), 10 nM DTT and 40 nM ES2 was prepared. On ice, a 2× reaction mixture of Assay Buffer (Panvera), and 20 nM hER-β (Panvera) and 40 nM ES2 was also prepared.
Dilutions of test compound were prepared in 30% (v/v) dimethyl sulfoxide/50 mM HEPES, pH 7.5. At this point, the dilutions were 40× the final required concentration.
The standard mixture at 50 μL was then added to each well. The reaction mixture at 48 μL was added to all wells. The compound dilution at 2.5 μL was added to the appropriate wells. The reaction mixtures were mixed using a manual pipette, a roll of aluminum foil adhesive cover was placed on the plate and the plate incubated at room temperature for 1 hour.
Each well on the plate was then read in an LjL Analyst with an excitation wavelength of […] and an emission wavelength of 538.
as §2

[3] = Homo sapiens, MCF7, agonist mode, 14C-thymidine incorporation, read-out: MCF7 Agonist EC50
[4] = Homo sapiens, MCF7, antagonist mode, 10 nM 17β-estradiol added, 14C-thymidine incorporation, read-out: MCF7 Antagonist IC50
[5] = Homo sapiens, Ishikawa, 72 h, agonist mode, alkaline phosphatase activity, 3 days
[6] = Homo sapiens, Ishikawa, 72 h, antagonist mode, 10 nM 17β-estradiol added, alkaline phosphatase activity, 3 days

EC50 (MCF-7 cells; [3]) | IC50 (MCF-7 cells; [4]) | IC50 [1] | EC50 [2, 5] | IC50 [2, 6] | IC50 (hER-β) | Compound | further results
> 10 µM | > 10 µM | > 10 µM | > 10 µM | > 10 µM | 5.7 µM | c1ccc(C2=C(c3ccccc3)CC3COCC3C2)cc1 (centres unmarked) [Compound 52] | –
– | – | 0.37 µM | – | – | 0.38 µM | CC1C(CO)CC=C(c2ccc(O)cc2)C1Cc1ccc(OCCN2CCCCC2)cc1 (centres unmarked) [Compound 74] | –
– | – | > 10 µM | – | – | 6.9 µM | CC1=C(C)CC(C)(CO)C(C)C1 (centres unmarked) [Compound 36] | –
0.2 µM | > 10 µM | 0.45 µM | 0.1 µM | 10 µM | 0.35 µM | CC1(CO)CC=C(c2ccc(O)cc2)CC1 (centres unmarked) [Compound 25, 4-(4-Hydroxymethyl-4-methyl-cyclohex-1-enyl)-phenol] | –
> 10 µM | > 10 µM | 0.5 µM | > 10 µM | > 10 µM | 1.5 µM | CC1(CO)CCC(c2ccc(O)cc2)=C(c2ccc(O)cc2)C1 (centres unmarked) [Compound 27, (1-methyl-3,4-di(4-hydroxy-phenyl)-cyclohex-3-enyl)-methanol] | –
– | – | > 10 µM | – | – | 4.9 µM | COc1ccc(C2=C(c3ccc(OC)cc3)C[C@H]3[C@H](CC[C@H]3O)C2)cc1 [Compound 57, 5,6-Bis-(4-methoxy-phenyl)-2,3,3a,4,7,7a-hexahydro-1H-inden-1R-ol] | –
> 10 µM | > 10 µM | > 10 µM | > 10 µM | > 10 µM | > 10 µM | CCOC(=O)C1CC=C(c2ccc(OC)cc2)C(Cc2ccc(OCCN3CCCCC3)cc2)C1C (centres unmarked) [Compound 39] | –
> 10 µM | > 10 µM | – | > 10 µM | > 10 µM | – | O=C1CCCC2CC(c3ccccc3)=C(c3ccccc3)CC12 (centres unmarked) [Compound 56, 6,7-Diphenyl-3,4,4a,5,8,8a-hexahydro-2H-naphthalen-1-one] | –
– | – | 6.1 µM | – | – | 5.7 µM | CN(C)CCOc1ccc(C2=C(c3ccc(O)cc3)CCC(C)(CO)C2)cc1 (centres unmarked) [Compound 3, 4-{2-[4-(2-Dimethylamino-ethoxy)-phenyl]-4-hydroxymethyl-4-methyl-cyclohex-1-enyl}-phenol] | –
> 10 µM | > 10 µM | > 10 µM | > 10 µM | > 10 µM | < 10 µM | OC[C@@H]1CC(c2ccccc2)=C(c2ccccc2)C[C@@H]1CO [Compound 18] | –
> 10 µM | > 10 µM | > 10 µM | > 10 µM | > 10 µM | > 10 µM | COc1ccc(C2=C(c3ccc(OC)cc3)CC(CO)C(CO)C2)cc1 (centres unmarked) [Compound 26, [6-Hydroxymethyl-3,4-bis-(4-methoxy-phenyl)-cyclohex-3-enyl]-methanol] | –
0.48 µM | > 10 µM | 1.85 µM | 0.7 µM | 4.5 µM | 0.1 µM | CCC1C(c2ccc(O)cc2)=C(c2ccc(OC)cc2)CC(CO)C1C (centres unmarked) [Compound 20, 4-[6-Ethyl-4-hydroxymethyl-2-(4-methoxy-phenyl)-5-methyl-cyclohex-1-enyl]-phenol] | –
> 10 µM | > 10 µM | 8.7 µM | > 10 µM | > 10 µM | 2 µM | COc1ccc(C2=C(c3ccc(OC)cc3)CC3C(CC[C@@H]3O)C2)cc1 (stereo partly drawn) [Compound 61, 5,6-Bis-(4-methoxy-phenyl)-2,3,3a,4,7,7a-hexahydro-1H-inden-1S-ol] | –

Compound | EC50 (MCF-7 cells; [3]) | IC50 (MCF-7 cells; [4]) | IC50 [1] | EC50 [2, 5] | IC50 [2, 6] | IC50 (hER-β) | further results
CCC1C(C)C(CO)CC(c2ccc(OC)cc2)C1c1ccc(O)cc1 (centres unmarked) [Compound 4, 4-[2-Ethyl-4-hydroxymethyl-6-(4-methoxy-phenyl)-3-methyl-cyclohexyl]-phenol] | – | – | > 10 µM | – | – | 1.6 µM | EC50 (MCF-7 cells; Homo sapiens, MCF7, read-out: MCF7 Agonist EC50): > 10 µM; IC50 (MCF-7 cells; Homo sapiens, MCF7, read-out: MCF7 Antagonist IC50): > 10 µM; EC50 ([2]; Homo sapiens, Ishikawa, 72 h): > 10 µM; IC50 ([2]; Homo sapiens, Ishikawa, 72 h): > 10 µM
4-(4-Hydroxy-phenyl)-[4-(2-morpholin-4-yl-ethoxy)-benzyl]-methyl-cyclohex-3-enecarboxylic acid ethyl ester [Compound 38] | – | – | – | – | – | 0.9 µM and 0.5 µM | EC50 (MCF-7 cells; agonist mode, 14C-thymidine incorporation, read-out: MCF7 Agonist EC50): > 10 µM; IC50 (MCF-7 cells; antagonist mode, 10 nM 17β-estradiol added, 14C-thymidine incorporation, read-out: MCF7 Antagonist IC50): 5 µM; EC50 ([2]; agonist mode, alkaline phosphatase activity, 3 days): > 10 µM; IC50 ([2]; antagonist mode, 10 nM 17β-estradiol added, alkaline phosphatase activity, 3 days): 2.1 µM
